The source of these data is the supplement of paper PMC11061612.

Experiment in all cases: combination Emax (second highest fraction inhibited in the dose matrix, 72 h); higher = more inhibition; extreme values may be limits of the assay
Experiment [1] deals with HCC1500 (Breast Carcinoma). A digest of the protocol: (§1)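 Cell lines grown in DMEM/F12 or RPMI with 10% FBS were plated in 1536-well plates and held 24 hours at 37°C, 5% CO2 before 72 hours of exposure to two-drug dose matrices, with DMSO typically at 0.2%. CellTiter-Glo 2.0 luminescence gave viability, which was converted to inhibition. Vehicle wells were set to 0 and blank wells to 1. Combination Emax is the second-highest inhibition in the matrix, and Bliss excess is the observed combination effect minus the expected EA + EB − EA·EB, where EA and EB are the single-agent effects.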

Experiment [2] deals with NCI-H1993 (Lung Adenocarcinoma). A digest of the protocol:
as §1

The test system of experiment [3] is MOG-G-UVW (Low Grade Glioma). A digest of the protocol:
as §1

Experiment [4] has as its system NCI-H650 (Lung Adenocarcinoma). A digest of the protocol: as §1

As to `CC1(C)CCC(CN2CCN(c3ccc(C(=O)NS(=O)(=O)c4ccc(NCC5CCOCC5)c([N+](=O)[O-])c4)c(Oc4cnc5[nH]ccc5c4)c3)CC2)=C(c2ccc(Cl)cc2)C1` [Venetoclax] + C1CN(CCC1(C(=O)N[C@@H](CCO)C2=CC=C(C=C2)Cl)N)C3=NC=NC4=C3C=CN4 [Capivasertib] (first compound max 1 µM, 7x7, partner max 3 µM), the “combination Emax” value in experiment [1] was 0.704; in experiment [2] it was 0.5; in experiment [3], 0.455; in experiment [4] it was 0.143.

In the case of `CC1(C)CCC(CN2CCN(c3ccc(C(=O)NS(=O)(=O)c4ccc(NCC5CCOCC5)c([N+](=O)[O-])c4)c(Oc4cnc5[nH]ccc5c4)c3)CC2)=C(c2ccc(Cl)cc2)C1` [Venetoclax] + C=CCn1c(=O)c2cnc(Nc3ccc(N4CCN(C)CC4)cc3)nc2n1-c1cccc(C(C)(C)O)n1 [AZD1775] (first compound max 1 µM, partner max 1 µM), the “combination Emax” value worked out at 0.781 in experiment [1], 0.629 in experiment [2], 0.933 in experiment [3] and 0.393 in experiment [4].

Take `CC1(C)CCC(CN2CCN(c3ccc(C(=O)NS(=O)(=O)c4ccc(NCC5CCOCC5)c([N+](=O)[O-])c4)c(Oc4cnc5[nH]ccc5c4)c3)CC2)=C(c2ccc(Cl)cc2)C1` [Venetoclax] + CCN(CCO)CCCOc1ccc2c(Nc3cc(CC(=O)Nc4cccc(F)c4)[nH]n3)ncnc2c1 [AZD2811] (first compound max 1 µM, 7x7, partner max 1 µM): the “combination Emax” value in experiment [1] was found to be 0.855; in experiment [2], 0.232; in experiment [3], 0.636; in experiment [4] it was 0.178.

As to `CC1(C)CCC(CN2CCN(c3ccc(C(=O)NS(=O)(=O)c4ccc(NCC5CCOCC5)c([N+](=O)[O-])c4)c(Oc4cnc5[nH]ccc5c4)c3)CC2)=C(c2ccc(Cl)cc2)C1` [Venetoclax] + CN(C)CCCOc1ccc(-c2ccc3ncc4c(c3c2)n(C2CCOCC2)c(=O)n4C)cn1 [AZD0156] (first compound max 1 µM, 7x7, partner max 1 µM), the “combination Emax” value was 0.864 in experiment [1], 0.413 in experiment [2], 0.726 in experiment [3] and 0.0987 in experiment [4].

In the case of `CC1(C)CCC(CN2CCN(c3ccc(C(=O)NS(=O)(=O)c4ccc(NCC5CCOCC5)c([N+](=O)[O-])c4)c(Oc4cnc5[nH]ccc5c4)c3)CC2)=C(c2ccc(Cl)cc2)C1` [Venetoclax] + COc1cc(Nc2ncc3c(n2)-c2ccc(Cl)cc2C(c2c(F)cccc2OC)=NC3)ccc1C(=O)O [Alisertib] (first compound max 1 µM, 7x7, partner max 10 µM), the “combination Emax” value in experiment [1] amounted to 0.805; in experiment [2], 0.308; in experiment [3], 0.722; in experiment [4] it was 0.319.

In the case of `CC1(C)CCC(CN2CCN(c3ccc(C(=O)NS(=O)(=O)c4ccc(NCC5CCOCC5)c([N+](=O)[O-])c4)c(Oc4cnc5[nH]ccc5c4)c3)CC2)=C(c2ccc(Cl)cc2)C1` [Venetoclax] + C[C@@H]1COCCN1C2=NC(=NC(=C2)C3(CC3)[S@](=N)(=O)C)C4=C5C=CNC5=NC=C4 [AZD6738] (first compound max 1 µM, 7x7, partner max 10 µM), the “combination Emax” value in experiment [1] came to 0.855; in experiment [2], 0.582; in experiment [3], 0.852; in experiment [4], 0.276.

Turning to `CC1(C)CCC(CN2CCN(c3ccc(C(=O)NS(=O)(=O)c4ccc(NCC5CCOCC5)c([N+](=O)[O-])c4)c(Oc4cnc5[nH]ccc5c4)c3)CC2)=C(c2ccc(Cl)cc2)C1` [Venetoclax] + C[C@@H](Nc1cc(F)cc(F)c1)c1cc(C(=O)N(C)C)cc2c(=O)cc(N3CCOCC3)oc12 [AZD8186] (first compound max 1 µM, 7x7, partner max 3 µM), the “combination Emax” value in experiment [1] was found to be 0.736; in experiment [2] it was 0.296; in experiment [3], 0.45; in experiment [4] it was 0.142.

For the molecule `CC1(C)CCC(CN2CCN(c3ccc(C(=O)NS(=O)(=O)c4ccc(NCC5CCOCC5)c([N+](=O)[O-])c4)c(Oc4cnc5[nH]ccc5c4)c3)CC2)=C(c2ccc(Cl)cc2)C1` [Venetoclax] + Cc1cc2ncnn2cc1Nc1ncc2c(n1)n(C1CCOCC1)c(=O)n2C [AZD7648] (first compound max 1 µM, 7x7, partner max 10 µM), the “combination Emax” value in experiment [1] is 0.823; in experiment [2], 0.541; in experiment [3], 0.416; in experiment [4], 0.197.

Take `CC1(C)CCC(CN2CCN(c3ccc(C(=O)NS(=O)(=O)c4ccc(NCC5CCOCC5)c([N+](=O)[O-])c4)c(Oc4cnc5[nH]ccc5c4)c3)CC2)=C(c2ccc(Cl)cc2)C1` [Venetoclax] + Cn1cnc2c(F)c(Nc3ccc(Br)cc3Cl)c(C(=O)NOCCO)cc21 [Selumetinib] (first compound max 1 µM, 7x7, partner max 3 µM): the “combination Emax” value in experiment [1] worked out at 0.612; in experiment [2], 0.436; in experiment [3] it was 0.413; in experiment [4], 0.239.
